Experimental data from patent US20210113540A1, “TREATMENT AGENT AND PHARMACEUTICAL COMPOSITION FOR GLIOMA” (NATIONAL UNIVERSITY CORPORATION HOKKAIDO UNIVERSITY, priority 2018, published 2021).
Read-outs that look alike come from different tables or passages of the source.

Assays:
E16 cells = assay: Quantitative determination of metabolites by LC-MS/MS in E16 cells; type: cell-based, human; design: dose or concentration left out as unconfirmed; details: 24 hours
Description: (§1) Compound 8 was added to GICs (E6, E16) at […] and treated for 24 hours. Cells were washed with a 5% mannitol solution, 70% ice-cold methanol was added, and metabolites were extracted. […] In addition, the amount of orotic acid was decreased in E16 cells.

[1] = tested on: GIC strains (E6 cell, E16 cell); assay: Immunostaining of differentiated and undifferentiated markers in GIC strains; type: cell-based, human; details: Compound 8 10 μM, E6 and E16 cells, FIG. 1
SOX2 in GICs (E16) = assay: SOX2 immunostaining, SOX2/DAPI positive rate in GICs (E16); type: cell-based, human
Description: (§2) The extranuclear elimination of compound 8-dependent SOX2 is dependent on the extranuclear transport factor, Exportin (also known as CRM1). The cells were cultured for one day in the presence of Compound 8 (10 μM) and a CRM1-specific inhibitor leptomycin B (LMB, 150 nM), and GICs were immunostained with the SOX2 antibody. As a result, the SOX2/DAPI positive rate in GICs (E6) was as follows: Control: 95±2%, supplemented with Compound 8: 7±3%, supplemented with Compound 8+LMB: 87±9%; the SOX2/DAPI positive rate in GICs (E16) was as follows: Control: 72±11%, supplemented with compound 8: 0.5±1%, supplemented with Compound 8+LMB: 81±10%. The addition of LMB suppressed Compound 8-dependent extranuclear elimination of SOX2.
(§3) When UDP-GlcNAc was added after the chemical was added to GIC, reduced SOX2 expression in GICs and the cytotoxic activity of Compound 8 on GICs were neutralized (FIGS. 3 and 4). SOX2 K75A in which lysine 75 involved in the binding of CRM1 and SOX2 was substituted with alanine and SOX2 S248A in which the 0-GlcNAcylation target serine 248 was substituted with alanine were prepared, thereby establishing GICs that constitutively express these SOX2 mutants and wild-type SOX2 (SOX2 wt). After treatment with Compound 8, the localization of SOX2 was examined by immunostaining using an anti-FLAG antibody, and the viability of GICs expressing these mutants was examined by MTT assay (FIG. 5). In the presence of Compound 8, SOX2 K75A was present in the nucleus and partially neutralized the cytotoxic activity of Compound 8. SOX2 S248A was not retained in the nucleus by treatment with Compound 8, and no inhibitory effect on cytotoxic activity was observed. […] The SOX2/DAPI positive rate was as follows: GIC (E6): Control: 0%, SOX2 wt: 36±5%, SOX2 K75A: 63±5%, SOX2 S248A: 18±2%; GIC (E16): Control: 0%, SOX2 wt: 22±4%, SOX2 K75A: 58±6%, SOX2 S248A: 15±3%. Error bar: ±SD. Statistical processing is t-test. *P<0.05, **P<0.01, ***P<0.001. GIC was cultured for 2 days with Compound 8 (10 μmol/L) alone or together with UDP-GlcNAc (1 mmol/L), and immunostaining was performed for SOX2 and NESTIN. As a result, the addition of UDP-GlcNAc suppressed Compound 8-dependent extranuclear elimination of SOX2.
(§4) OSMI-1, which is an O-GlcNAc transferase (OGT)-specific inhibitor, suppresses GIC growth and SOX2 expression. (A) GICs were cultured for 3 days in the presence of various concentrations of OSMI-1, and cell growth was examined using MTT assay (FIG. 6). (B) The results of immunostaining for SOX2 and NESTIN using GICs cultured for 2 days in the presence of 20 μmol/L OSMI-1 and calculating the SOX2 positive rate (SOX2/DAPI) are shown below.

[2] = tested on: Glioma-initiating cell E16; assay: Cell proliferation test (MTT) on GIC strain E16; type: cell-based; details: Homo sapiens, 72 h, MTT after 3 days
Description: (§5) GIC and GICR strain: Cell growth test was performed using E6, E6R, E16, and E16R (Stem Cells. 2016 August; 34(8): 2016-25.).
(§6) Cell culture solutions were obtained by mixing a medium prepared by adding various compounds, bFGF (Peprotech, 100-18B) and EGF (Peprotech, 100-15) to DMEM/Ham's F-12 medium (SIGMA, D8062) and a medium prepared by adding FCS (Hyclone, SH30910.03) to DMEM medium (Nacalai tesque, 08458-45) to a concentration of 10% for use.
(§7) Each compound adjusted to a predetermined concentration was dispensed into a 96-well plate (Falcon, 353072) at 80 μL/well, and E6 cells and E6R cells were seeded on the 96-well plate at 1000 cells/80 μL/well. After 3 days, 10 μL of an MTT reagent (DOJINDO, 341-01823) was added, the cells were incubated at 37° C. for 3 hours, the culture solution was removed, and 100 μL of DMSO was added. The absorbance at 570 nm was measured using Bio-Rad iMark (Bio-Rad, 168-1130JA). The growth inhibition rate at each test compound concentration was calculated by the following formula using the absorbance as an index of the viable cell count.
(§8) The growth inhibition rate at each compound concentration was determined, and the 50% growth inhibition concentration GI50 (μmol/L)] was calculated using XLfit. Growth inhibition rate (%)=(Amount of luminescence from wells supplemented with test compound)/(Amount of luminescence from wells supplemented with DMSO)×100

[3] = tested on: Glioma-initiating cell E16R; assay: Cell proliferation test (MTT) on GICR strain E16R; type: cell-based; details: Homo sapiens, 72 h, MTT after 3 days
Description: as §5, §6, §7, §8

E6 cells = assay: Quantitative determination of metabolites by LC-MS/MS in E6 cells; type: cell-based, human; design: dose or concentration left out as unconfirmed; details: 24 hours, compared to control DMSO-treated group
Description: as §1

SOX2 in GICs (E6) = assay: SOX2 immunostaining, SOX2/DAPI positive rate in GICs (E6); type: cell-based, human
Description: as §2, §3, §4

[4] = after treatment with Compound 8, anti-FLAG immunostaining

SMILES: O=C(O)c1cc(C2CC2)cnc1Nc1ccc2c(ccn2-c2ccccc2)c1 [Compound 8, 5-cyclopropyl-2-((1-phenyl-1H-indole-5-yl)amino)nicotinic acid]
- amount of orotic acid in E16 cells (E16 cells): decreased
- increase of the amount of DHO in E16 cells (E16 cells; compared to control DMSO-treated group): 125 fold
- expression of differentiation markers (βIII tubulin, GFAP, GC) [1]: increased
- positive rate of neural stem cell markers SOX2 and NESTIN [1]: remarkable decrease
- SOX2/DAPI positive rate in GICs (E16) (SOX2 in GICs (E16); Compound 8 10 μM, LMB 150 nM where added, cultured one day, control 72±11%): 0.5±1%
- SOX2/DAPI positive rate, GIC (E16) expressing SOX2 K75A (SOX2 in GICs (E16); [4]): 58±6%
- SOX2/DAPI positive rate, GIC (E16) expressing SOX2 S248A (SOX2 in GICs (E16); [4]): 15±3%
- SOX2/DAPI positive rate, GIC (E16) expressing SOX2 wt (SOX2 in GICs (E16); [4]): 22±4%
- GI50 ([2]; read-out: GI50 (nmol/L) of Glioma-initiating cell E16): 434 nmol/L
- GI50 ([2]; read-out: GI50 class of Glioma-initiating cell E16): < 1000 nmol/L
- GI50 ([3]; read-out: GI50 (nmol/L) of Glioma-initiating cell E16R): 490 nmol/L
- GI50 ([3]; read-out: GI50 class of Glioma-initiating cell E16R): < 1000 nmol/L
- increase of the amount of DHO in E6 cells (E6 cells): 596 fold
- SOX2/DAPI positive rate in GICs (E6) (SOX2 in GICs (E6); Compound 8 10 μM, LMB 150 nM where added, cultured one day, control 95±2%): 7±3%
- SOX2/DAPI positive rate, GIC (E6) expressing SOX2 K75A (SOX2 in GICs (E6); [4]): 63±5%
- SOX2/DAPI positive rate, GIC (E6) expressing SOX2 S248A (SOX2 in GICs (E6); [4]): 18±2%
- SOX2/DAPI positive rate, GIC (E6) expressing SOX2 wt (SOX2 in GICs (E6); [4]): 36±5%
